Reference: patent publication US8653263B2 (Janssen Pharmaceutica, priority 2009, dated 2014)

Each compound was assayed against human orexin-2 receptor (Homo sapiens (Human), UniProt O43614) (assay: Human orexin 2 receptor radioligand binding ([3H]-EMPA competition)). Details: HEK293 cells stably expressing human orexin-2 receptor; [3H]-EMPA 5 nM final; apparent Ki=IC50/(1+C/Kd), Kd=2 nM; read-out: OR 2 Ki.
human orexin-2 receptor, sequence (O43614 whole entry): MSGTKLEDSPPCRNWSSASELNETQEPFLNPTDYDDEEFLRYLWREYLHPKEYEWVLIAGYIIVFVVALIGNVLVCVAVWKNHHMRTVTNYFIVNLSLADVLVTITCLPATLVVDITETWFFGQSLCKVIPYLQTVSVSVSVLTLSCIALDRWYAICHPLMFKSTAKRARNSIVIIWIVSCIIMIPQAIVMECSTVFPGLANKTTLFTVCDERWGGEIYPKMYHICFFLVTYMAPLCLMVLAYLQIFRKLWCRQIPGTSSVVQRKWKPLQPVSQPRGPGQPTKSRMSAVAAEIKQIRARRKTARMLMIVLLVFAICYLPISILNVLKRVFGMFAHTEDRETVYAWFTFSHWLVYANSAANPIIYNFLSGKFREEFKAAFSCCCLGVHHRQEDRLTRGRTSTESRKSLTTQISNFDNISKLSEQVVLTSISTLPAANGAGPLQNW

Row | SMILES | Ki [nM]
1 | Cc1ccc(-c2ncccn2)c(C(=O)N2CC3CN(c4cc(C(F)(F)F)nc(N(C)C)n4)CC3C2)c1 (centres unmarked) [Example 108, N,N-Dimethyl-4-{5-[(5-methyl-2-pyrimidin-2-ylphenyl)carbonyl]hexahydropyrrolo[3,4-c]pyrrol-2(1H)-yl}-6-(trifluoromethyl)pyrimidin-2-amine] | 57
2 | O=C(c1ccccc1-c1nnc[nH]1)N1CC2CN(c3nc4ccccc4o3)CC2C1 (centres unmarked) [Example 86, 2-[5-{[2-(4H-1,2,4-Triazol-3-yl)phenyl]carbonyl}hexahydropyrrolo[3,4-c]pyrrol-2(1H)-yl]-1,3-benzoxazole] | 256
3 | N#Cc1ccccc1C(=O)N1CC2CN(c3cnc4ccccc4n3)CC2C1 (centres unmarked) [Example 26, 2-(5-Quinoxalin-2-yl-hexahydro-pyrrolo[3,4-c]pyrrole-2-carbonyl)-benzonitrile] | 9000
4 | O=C(c1ccccc1-n1nccn1)N1CC2CN(c3nccc(-c4ccccc4)n3)CC2C1 (centres unmarked) [Example 131, 2-(4-Phenylpyrimidin-2-yl)-5-{[2-(2H-1,2,3-triazol-2-yl)phenyl]carbonyl}octahydro pyrrolo[3,4-c]pyrrole] | 75
5 | O=C(c1ccccc1-c1ccc(F)cc1)N1CC2CN(c3cnc4ccccc4n3)CC2C1 (centres unmarked) [Example 28, 2-{5-[(4′-Fluorobiphenyl-2-yl)carbonyl]hexahydropyrrolo[3,4-c]pyrrol-2(1H)-yl}quinoxaline] | 575
6 | Cc1cccc(N2CC3CN(C(=O)c4ccccc4-c4cccs4)CC3C2)n1 (centres unmarked) [Example 134, 2-(6-Methylpyridin-2-yl)-5-[(2-thiophen-2-ylphenyl)carbonyl]octahydropyrrolo[3,4-c]pyrrole] | 102
7 | O=C(c1ccccc1-c1ccccc1)N1CC2CN(c3nccc(-c4cccs4)n3)CC2C1 (centres unmarked) [Example 38, 2-(Biphenyl-2-ylcarbonyl)-5-(4-thiophen-2-ylpyrimidin-2-yl)octahydropyrrolo[3,4-c]pyrrole] | 515
8 | COc1ccnc(N2CC3CN(C(=O)c4c(C)ccc5ccccc45)CC3C2)n1 (centres unmarked) [Example 49, 2-(4-Methoxypyrimidin-2-yl)-5-[(2-methylnaphthalen-1-yl)carbonyl]octahydro-pyrrolo[3,4-c]pyrrole] | 78
9 | O=C(c1ccccc1-c1cccs1)N1CC2CN(c3cnc4ccccc4n3)CC2C1 (centres unmarked) [Example 19, 2-{5-[(2-Thiophen-2-ylphenyl)carbonyl]hexahydropyrrolo[3,4-c]pyrrol-2(1H)-yl}quinoxaline] | 24
10 | CN(C)c1nc(N2CC3CN(C(=O)c4c(F)cccc4-n4nccn4)CC3C2)cc(C(F)(F)F)n1 (centres unmarked) [Example 106, 4-[5-{[2-Fluoro-6-(2H-1,2,3-triazol-2-yl)phenyl]carbonyl}hexahydropyrrolo[3,4-c]pyrrol-2(1H)-yl]-N,N-dimethyl-6-(trifluoromethyl)pyrimidin-2-amine] | 26
11 | COc1cccc(OC)c1C(=O)N1CC2CN(c3cnc4ccccc4n3)CC2C1 (centres unmarked) [Example 165, 2-{5-[(2,6-Dimethoxyphenyl)carbonyl]hexahydropyrrolo[3,4-c]pyrrol-2(1H)-yl}quinoxaline] | 852
12 | Cc1cc(N2CC3CN(C(=O)c4cc(F)ccc4-n4nccn4)CC3C2)nc(C(F)(F)F)n1 (centres unmarked) [Example 114, 2-{[5-Fluoro-2-(2H-1,2,3-triazol-2-yl)phenyl]carbonyl}-5-[6-methyl-2-(trifluoromethyl)pyrimidin-4-yl]octahydropyrrolo[3,4-c]pyrrole] | 224
13 | Cc1cnc(C)c(N2CC3CN(C(=O)c4ccccc4-c4cccs4)CC3C2)n1 (centres unmarked) [Example 63, 2-(3,6-Dimethylpyrazin-2-yl)-5-[(2-thiophen-2-ylphenyl)carbonyl]octahydro-pyrrolo[3,4-c]pyrrole] | 44
14 | Cc1cc(C)nc(N2CC3CN(C(=O)c4ccccc4C(C)C)CC3C2)n1 (centres unmarked) [Example 91, 2-(4,6-Dimethylpyrimidin-2-yl)-5-{[2-(1-methylethyl)phenyl]carbonyl}octahydro-pyrrolo[3,4-c]pyrrole] | 541
15 | O=C(c1ccccc1-n1nccn1)N1CC2CN(c3nccc(C(F)(F)F)n3)CC2C1 (centres unmarked) [Example 153, 2-{[2-(2H-1,2,3-Triazol-2-yl)phenyl]carbonyl}-5-[4-(trifluoromethyl)pyrimidin-2-yl]octahydropyrrolo[3,4-c]pyrrole] | 75
16 | COc1ccnc(N2CC3CN(C(=O)c4ccc(F)c5ccccc45)CC3C2)n1 (centres unmarked) [Example 57, 2-[(4-Fluoronaphthalen-1-yl)carbonyl]-5-(4-methoxypyrimidin-2-yl)octahydro-pyrrolo[3,4-c]pyrrole] | 167
17 | COc1ccnc(N2CC3CN(C(=O)c4c(OC)ccc5ccccc45)CC3C2)n1 (centres unmarked) [Example 60, 2-[(2-Methoxynaphthalen-1-yl)carbonyl]-5-(4-methoxypyrimidin-2-yl)octahydropyrrolo[3,4-c]pyrrole] | 173
18 | Cc1ccc(-n2nccn2)c(C(=O)N2CC3CN(c4nccc(-c5ccccc5)n4)CC3C2)c1 (centres unmarked) [Example 127, 2-{[5-Methyl-2-(2H-1,2,3-triazol-2-yl)phenyl]carbonyl}-5-(4-phenylpyrimidin-2-yl)octahydropyrrolo[3,4-c]pyrrole] | 55
19 | COc1ccc(C(=O)N2CC3CN(c4nc5ccc(C)cc5s4)CC3C2)c(OC)c1 (centres unmarked) [Example 172, 2-{5-[(2,4-Dimethoxyphenyl)carbonyl]hexahydropyrrolo[3,4-c]pyrrol-2(1H)-yl}-6-methyl-1,3-benzothiazole] | 450

Results, then the compound that gave them:

Row | Ki [nM] | SMILES
20 | 1100 | Cc1ccc(-c2ccccc2C(=O)N2CC3CN(c4nccc(-c5ccccc5)n4)CC3C2)cc1 (centres unmarked) [Example 195, (4′-Methyl-biphenyl-2-yl)-[5-(4-phenyl-pyrimidin-2-yl)-hexahydro-pyrrolo[3,4-c]pyrrol-2-yl]-methanone]
21 | 33 | COc1ccc(C(=O)N2CC3CN(c4nc(C)cc(C)n4)CC3C2)c(-c2ncccn2)c1 (centres unmarked) [Example 272, (5-(4,6-Dimethylpyrimidin-2-yl)hexahydropyrrolo[3,4-c]pyrrol-2(1H)-yl)(4-methoxy-2-(pyrimidin-2-yl)phenyl)methanone]
22 | 23 | Cc1cc(C)nc(N2CC3CN(C(=O)c4ccc(F)cc4-c4ccccn4)CC3C2)n1 (centres unmarked) [Example 366, (5-(4,6-Dimethylpyrimidin-2-yl)hexahydropyrrolo[3,4-c]pyrrol-2(1H)-yl)(4-fluoro-2-(pyridin-2-yl)phenyl)methanone]
23 | 5000 | Cc1cc(C)nc(N2CC3CN(C(=O)c4cccc(F)c4F)CC3C2)n1 (centres unmarked) [Example 271, (2,3-Difluorophenyl)(5-(4,6-dimethylpyrimidin-2-yl)hexahydropyrrolo[3,4-c]pyrrol-2(1H)-yl)methanone]
24 | 10000 | Cc1nc(=O)cc(N2CC3CN(C(=O)c4nc(C)sc4-c4ccc(F)cc4)CC3C2)[nH]1 (centres unmarked) [Example 255, 6-[5-{[5-(4-Fluorophenyl)-2-methyl-1,3-thiazol-4-yl]carbonyl}hexahydropyrrolo[3,4-c]pyrrol-2(1H)-yl]-2-methylpyrimidin-4(3H)-one]
25 | 21 | Cc1cc(C)nc(N2CC3CN(C(=O)c4cccc(F)c4-c4ncccc4F)CC3C2)n1 (centres unmarked) [Example 375, (5-(4,6-Dimethylpyrimidin-2-yl)hexahydropyrrolo[3,4-c]pyrrol-2(1H)-yl)(3-fluoro-2-(3-fluoropyridin-2-yl)phenyl)methanone]
26 | 17 | COc1ccc(-n2nccn2)c(C(=O)N2CC3CN(c4nc(C)c(C)c(C)n4)CC3C2)c1 (centres unmarked) [Example 241, (5-Methoxy-2-(2H-1,2,3-triazol-2-yl)phenyl)(5-(4,5,6-trimethylpyrimidin-2-yl)hexahydropyrrolo[3,4-c]pyrrol-2(1H)-yl)methanone]
27 | 120 | Cc1cc(C)nc(N2CC3CN(C(=O)c4cc(F)ccc4-c4ncccc4F)CC3C2)n1 (centres unmarked) [Example 402, (5-(4,6-Dimethylpyrimidin-2-yl)hexahydropyrrolo[3,4-c]pyrrol-2(1H)-yl)(5-fluoro-2-(3-fluoropyridin-2-yl)phenyl)methanone]
28 | 836 | Cc1cc(C)nc(N2CC3CN(C(=O)c4cc(F)ccc4C)CC3C2)n1 (centres unmarked) [Example 226, 2-(4,6-Dimethylpyrimidin-2-yl)-5-[(5-fluoro-2-methylphenyl)carbonyl]octahydropyrrolo[3,4-c]pyrrole]
29 | 570 | Cc1cccc(-c2ccc(F)cc2C(=O)N2CC3CN(c4nc(C)cc(C)n4)CC3C2)n1 (centres unmarked) [Example 399, (5-(4,6-Dimethylpyrimidin-2-yl)hexahydropyrrolo[3,4-c]pyrrol-2(1H)-yl)(5-fluoro-2-(6-methylpyridin-2-yl)phenyl)methanone]
30 | 729 | Cc1ccnc(N2CC3CN(C(=O)c4ccccc4-c4ccccc4)CC3C2)n1 (centres unmarked) [Example 174, 2-(Biphenyl-2-ylcarbonyl)-5-(4-methylpyrimidin-2-yl)octahydropyrrolo[3,4-c]pyrrole]
31 | 109 | Cc1cc(C)nc(N2CC3CN(C(=O)c4cccc(F)c4-c4ncccc4Cl)CC3C2)n1 (centres unmarked) [Example 372, (2-(3-Chloropyridin-2-yl)-3-fluorophenyl)(5-(4,6-dimethylpyrimidin-2-yl)hexahydropyrrolo[3,4-c]pyrrol-2(1H)-yl)methanone]
32 | 10000 | COc1cccc(OC)c1C(=O)N1CC2CN(c3ccc(C(F)(F)F)cn3)CC2C1 (centres unmarked) [Example 349, 2-[(2,6-Dimethoxyphenyl)carbonyl]-5-[5-(trifluoromethyl)pyridin-2-yl]octahydropyrrolo[3,4-c]pyrrole]
33 | 184 | CCOc1ccc(OCC)c(C(=O)N2CC3CN(c4nc(C)cc(C)n4)CC3C2)c1 (centres unmarked) [Example 228, 2-[(2,5-Diethoxyphenyl)carbonyl]-5-(4,6-dimethylpyrimidin-2-yl)octahydropyrrolo[3,4-c]pyrrole]
34 | 190 | COc1ccc(C(=O)N2CC3CN(c4cc(N(C)C)ncn4)CC3C2)c(-n2nccn2)c1 (centres unmarked) [Example 390, (5-(6-(Dimethylamino)pyrimidin-4-yl)hexahydropyrrolo[3,4-c]pyrrol-2(1H)-yl)(4-methoxy-2-(2H-1,2,3-triazol-2-yl)phenyl)methanone]

Same assay, conditions: read-out: OR 2 Ki

Row | Ki [nM] | SMILES
35 | 29 | Cc1nc(N2CC3CN(C(=O)c4ccccc4-c4ncn(C)n4)CC3C2)ncc1Cl (centres unmarked) [Example 321, 2-(5-Chloro-4-methylpyrimidin-2-yl)-5-{[2-(1-methyl-1H-1,2,4-triazol-3-yl)phenyl]carbonyl}octahydropyrrolo[3,4-c]pyrrole]
